US20120107932A1, “PRRS-VIRUS RECEPTOR AND ITS INHIBITOR” (priority 2009, published 2012)

Key:
NMM-II ATPase = conditions: vertebrate cells; Straight et al. Science 2003; cited from earlier work
MA-104 and PAM cells [1] = assay: Effects of blebbistatin on cells (cytopathic effects, CPE); format: cell-based
MA-104 and PAM cells [2] = assay: as above; format: cell-based; conditions: Table 4, Marc-145 and PAM cells
Procedure: Marc-145 and PAM cells (10^5 cells/ml) are cultured on DMEM medium (containing 100 U/ml penicillin, 50 μg/ml streptomycin sulphate, 50 μg/ml gentamycin and 10% calf serum) in an incubator under 37[…] and 5% CO2 to form monolayer. Dissolve (±)-blebbistatin, (S)-(−)-blebbistatin and (R)-(+)-blebbistatin (purchased from Tocris Cookson, Inc. [US]) in DMSO, then perform multiple-proportion dilution with PBS, add a monolayer culture plate and continuously culture it to observe cytopathic effects (CPE). Under a conventional microscope, CPE is observed as rough cell surface, strong refractivity, and finally cell shedding. […] Therefore, (+)-blebbistatin can be used as a PRRSV-receptor blocker.

PRRSV = assay: PRRSV-receptor blocking test (CPE caused by PRRSV in Marc-145 and PAM cells); format: cell-based; parameters: key to Inhibition levels of CPE: “−” means no CPE; “+” means CPE in 25% cells; “++” means CPE in 50% cells; “+++” means CPE in above 75% cells; conditions: for Inhibition levels of CPE: PRRSV 10^3TCID50/ml, Marc-145 and PAM cells
Procedure: Marc-145 and PAM cells (10^5 cells/ml) are cultured on DMEM medium (containing 100 U/ml penicillin, 50 μg/ml streptomycin sulphate, 50 μg/ml gentamycin and 10% calf serum) in an incubator under 37 □ and 5% CO2 to form monolayer. Dissolve the NMHC II-A protein, artificially synthesized polypeptides, serum antibodies and (+)-blebbistatin obtained by using the methods of Implementation Examples 1, 2 and 4 in the DMEM medium; after de-germing by filtration, mix with PRRSV strains under different fixation concentrations (10^3TCID50/ml) and incubate an hour, and then add the cells above; perform eight repetitions for each dilution; after adsorption at 37 °C for an hour, remove the mixture, add DMEM medium and culture continuously; and observe CPE daily. The CPE manifestations caused by PRRSV infection include rough cell surface, strong refractivity, and finally cell shedding. The results in Table 5 illustrate the CPE inhibition levels of the NMHC II-A protein, artificially synthesized polypeptides, serum antibodies and (+)-blebbistatin under the each-well concentration of μg, μg, μL and μM in turn. The judgment results of cell CPE are expressed as follows: “−” means no CPE, “+” means CPE in 25% cells, “++” means CPE in 50% cells, and “+++” means CPE in above 75% cells.

NMM-II = conditions: Straight et al. Science 2003; cited from earlier work
MA-104 and PAM cells [3] = assay: Indirect immunofluorescence assay (IFA), serum antibodies binding to cells; format: cell-based; conditions: serum of mice after third immunization with the named antigen
Procedure: Indirect immunofluorescence assay (IFA): After dilution, combine the mouse anti-NMHC II-A protein and anti-polypeptide antibodies after immunization three times with MA-104 and PAM monolayer cells for 0.5-2 hours, then bind the goat anti-mouse IgG testing antibody labeled with fluorescence to the cells.

[4] = dilution 1/40, MA-104 and PAM cells
[5] = dilution 1/80, MA-104 and PAM cells
[6] = dilution 1/160, MA-104 and PAM cells
[7] = dilution 1/320, MA-104 and PAM cells

Molecule	blebbistatin causing CPE or not (Yes or No) (MA-104 and PAM cells [1]; 1 μM)	blebbistatin causing CPE or not (Yes or No) (MA-104 and PAM cells [1]; 2 μM)	blebbistatin causing CPE or not (Yes or No) (MA-104 and PAM cells [1]; 5 μM)	blebbistatin causing CPE or not (Yes or No) (MA-104 and PAM cells [1]; 10 μM)	blebbistatin causing CPE or not (Yes or No) (MA-104 and PAM cells [1]; 20 μM)	blebbistatin causing CPE or not (Yes or No) (MA-104 and PAM cells [1]; 50 μM)	blebbistatin causing CPE or not (Yes or No) (MA-104 and PAM cells [1]; 100 μM)	effect on cell proliferation and CPE (MA-104 and PAM cells [2])	Cell-bound serum (with or without fluorescence) (MA-104 and PAM cells [3]; [4])	Cell-bound serum (with or without fluorescence) (MA-104 and PAM cells [3]; [5])	Cell-bound serum (with or without fluorescence) (MA-104 and PAM cells [3]; [6])	Cell-bound serum (with or without fluorescence) (MA-104 and PAM cells [3]; [7])	Inhibition levels of CPE (PRRSV; 1 μg per well)	Inhibition levels of CPE (PRRSV; 2 μg per well)	Inhibition levels of CPE (PRRSV; 5 μg per well)	Inhibition levels of CPE (PRRSV; 10 μg per well)	Inhibition levels of CPE (PRRSV; 20 μg per well)	Inhibition levels of CPE (PRRSV; 50 μg per well)	Inhibition levels of CPE (PRRSV; 100 μg per well)	inhibition of the cell CPE caused by PRRSV (PRRSV; at 2 μg-100 μg/well)	other results
Cc1ccc2c(c1)C(=O)C1(O)CCN(c3ccccc3)C1=N2 (racemic) [(±)-blebbistatin]	Yes	Yes	Yes	Yes	Yes	Yes	Yes	can inhibit cell proliferation and cause CPE													inhibition of NMM-II ATPase activity (NMM-II ATPase): selective inhibitor
Cc1ccc2c(c1)C(=O)[C@@]1(O)CCN(c3ccccc3)C1=N2 [(+)-blebbistatin, (R)-(+)-blebbistatin, reference compound]	No	No	No	No	No	No	No	does not inhibit cell proliferation and does not cause CPE													Inhibition levels of CPE (PRRSV; 1 μM per well): + (“+” means CPE in 25% cells); Inhibition levels of CPE (PRRSV; 2 μM per well): −; Inhibition levels of CPE (PRRSV; 5 μM per well): −; Inhibition levels of CPE (PRRSV; 10 μM per well): −; Inhibition levels of CPE (PRRSV; 20 μM per well): −; Inhibition levels of CPE (PRRSV; 50 μM per well): −; Inhibition levels of CPE (PRRSV; 100 μM per well): −; inhibition of the cell CPE caused by PRRSV (PRRSV; at 2 μM-100 μM/well): fully inhibit; blocking of PRRSV strains from infecting cells (PRRSV; classic American strains (VR-2332), Chinese isolates (Ch-1a), highly pathogenic strains (JXA-1)): block the classic American strains, Chinese isolates and highly pathogenic strains of PRRSV from infecting cells; inhibition of NMM-II-dependent cellular division and proliferation (NMM-II): does not inhibit
Cc1ccc2c(c1)C(=O)[C@]1(O)CCN(c3ccccc3)C1=N2 [(S)-(−)-blebbistatin]	Yes	Yes	Yes	Yes	Yes	Yes	Yes	can inhibit cell proliferation and cause CPE													
Polypeptide (Seq ID No: 2): NMHC II-A artificial polypeptide, amino-acid sequence Seq ID No: 2 (GAGDGSDEE)									Yes	Yes	Yes	Yes	++ (“++” means CPE in 50% cells)	−	−	−	−	−	−	fully inhibit	
Polypeptide (Seq ID No: 3): NMHC II-A artificial polypeptide, amino-acid sequence Seq ID No: 3 (GAGDGSDEEVDGKA)									Yes	Yes	Yes	Yes	++ (“++” means CPE in 50% cells)	−	−	−	−	−	−	fully inhibit	
Polypeptide (Seq ID No: 4): NMHC II-A artificial polypeptide, amino-acid sequence Seq ID No: 4 (KADGAEAKPAE)									Yes	Yes	Yes	Yes	++ (“++” means CPE in 50% cells)	−	−	−	−	−	−	fully inhibit	
